Reference: the supplement of paper PMC10307832

Key:
Assay in all cases: relative viability (nuclei count vs DMSO), 5 days (fraction); higher = more cells survive
AZ628 + Phenformin = compound: CC1=C(C=C(C=C1)NC(=O)C2=CC(=CC=C2)C(C)(C)C#N)NC3=CC4=C(C=C3)N=CN(C4=O)C [AZ628] + N=C(N)NC(=N)NCCc1ccccc1 [Phenformin] (partner 250 µM)
Outline: (§1)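 Each reported value is a median over duplicate plates. It expresses relative viability: treated-well nuclei count divided by vehicle-well nuclei count. Lung cancer cell lines in 1536-well plates were dosed by pin tool a day after seeding, alone with one drug or with a fixed anchor-drug dose plus five library-drug doses (not always all listed) in √10 steps, and nuclei were counted after 5 days.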

AZ628 + AZD7762 = compound: CC1=C(C=C(C=C1)NC(=O)C2=CC(=CC=C2)C(C)(C)C#N)NC3=CC4=C(C=C3)N=CN(C4=O)C [AZ628] + NC(=O)Nc1cc(-c2cccc(F)c2)sc1C(=O)N[C@H]1CCCNC1 [AZD7762] (partner 0.2 µM)
Outline: as §1

AZ628 + Tozasertib = compound: CC1=C(C=C(C=C1)NC(=O)C2=CC(=CC=C2)C(C)(C)C#N)NC3=CC4=C(C=C3)N=CN(C4=O)C [AZ628] + Cc1cc(Nc2cc(N3CCN(C)CC3)nc(Sc3ccc(NC(=O)C4CC4)cc3)n2)n[nH]1 [Tozasertib] (partner 0.1 µM)
Outline: as §1

QS11 + Luminespib = compound: C1CC2=C(C1)C=C(C=C2)OC3=NC(=C4C(=N3)N(C=N4)CC5=CC=C(C=C5)C6=CC=CC=C6)N[C@@H](CC7=CC=CC=C7)CO [QS11] + CCNC(=O)c1noc(-c2cc(C(C)C)c(O)cc2O)c1-c1ccc(CN2CCOCC2)cc1 [Luminespib] (partner 0.01 µM)
Outline: as §1

| Cell Line | relative viability (AZ628 + Phenformin; first compound 0.08 µM) | relative viability (AZ628 + Phenformin; first compound 0.253 µM) | relative viability (AZ628 + Phenformin; first compound 0.8 µM) | relative viability (AZ628 + Phenformin; first compound 2.53 µM) | relative viability (AZ628 + Phenformin; first compound 8 µM) | relative viability (AZ628 + AZD7762; first compound 0.08 µM) | relative viability (AZ628 + AZD7762; first compound 0.253 µM) | relative viability (AZ628 + AZD7762; first compound 0.8 µM) | relative viability (AZ628 + AZD7762; first compound 2.53 µM) | relative viability (AZ628 + AZD7762; first compound 8 µM) | relative viability (AZ628 + Tozasertib; first compound 0.08 µM) | relative viability (AZ628 + Tozasertib; first compound 0.253 µM) | relative viability (AZ628 + Tozasertib; first compound 0.8 µM) | relative viability (AZ628 + Tozasertib; first compound 2.53 µM) | relative viability (AZ628 + Tozasertib; first compound 8 µM) | relative viability (QS11 + Luminespib; first compound 0.08 µM) | relative viability (QS11 + Luminespib; first compound 0.253 µM) | relative viability (QS11 + Luminespib; first compound 0.8 µM) | relative viability (QS11 + Luminespib; first compound 2.53 µM) | relative viability (QS11 + Luminespib; first compound 8 µM) |
| --- | --- | --- | --- | --- | --- | --- | --- | --- | --- | --- | --- | --- | --- | --- | --- | --- | --- | --- | --- | --- |
| NCI-H23 | 0.841 | 0.806 | 0.619 | 0.716 | 0.595 | 0.226 | 0.23 | 0.151 | 0.184 | 0.146 | 0.286 | 0.263 | 0.323 | 0.26 | 0.213 | 0.212 | 0.237 | 0.208 | 0.227 | 0.182 |
| NCI-H322M | 0.783 | 0.737 | 0.725 | 0.769 | 0.663 | 0.529 | 0.526 | 0.455 | 0.467 | 0.524 | 0.468 | 0.497 | 0.459 | 0.474 | 0.404 | 0.823 | 0.863 | 0.911 | 0.99 | 1.24 |
| NCI-H358 | 0.32 | 0.208 | 0.216 | 0.222 | 0.216 | 0.499 | 0.405 | 0.367 | 0.412 | 0.302 | 0.123 | 0.114 | 0.1 | 0.117 | 0.0782 | 0.435 | 0.457 | 0.479 | 0.414 | 0.444 |
| NCI-H441 | 0.991 | 0.71 | 0.822 | 0.712 | 0.469 | 1.41 | 0.841 | 0.911 | 1.1 | 0.655 | 0.647 | 0.613 | 0.676 | 0.556 | 0.445 | 0.376 | 0.286 | 0.329 | 0.315 | 0.328 |
| NCI-H460 | 0.52 | 0.511 | 0.452 | 0.404 | 0.189 | 0.51 | 0.589 | 0.627 | 0.672 | 0.596 | 0.449 | 0.186 | 0.146 | 0.382 | 0.053 | 0.0331 | 0.0356 | 0.0316 | 0.0243 | 0.0438 |
| NCI-H522 | 0.628 | 0.516 | 0.617 | 0.542 | 0.663 | 0.826 | 0.721 | 0.749 | 0.863 | 0.708 | 0.578 | 0.547 | 0.542 | 0.523 | 0.57 | 1.01 | 1.35 | 0.945 | 0.98 | 1.17 |
| NCI-H596 | 0.722 | 0.85 | 0.969 | 0.781 | 0.808 | 1.11 | 1.08 | 1.02 | 1.17 | 0.915 | 0.768 | 0.827 | 0.956 | 0.886 | 0.848 | 0.87 | 1.09 | 0.919 | 0.829 | 0.934 |
| NCI-H647 | 0.695 | 0.525 | 0.467 | 0.323 | 0.405 | 0.485 | 0.417 | 0.456 | 0.488 | 0.397 | 0.293 | 0.262 | 0.296 | 0.269 | 0.146 | 0.155 | 0.321 | 0.118 | 0.171 | 0.141 |
